From ChEMBL document CHEMBL5579900, “Enhanced Recognition Memory through Dual Modulation of Brain Carbonic Anhydrases and Cholinesterases” (J Med Chem, 2024)
The source made the active and inactive calls. No cut-off for these calls is given here.

Assays:
[1] = biological target: Carbonic anhydrase 7 (Homo sapiens) (UniProt P43166)
Description: Binding affinity to human carbonic anhydrase 7 assessed as activation constant by phenol red dye based stopped-flow method

[2] = tested on: Mus musculus; experiment: Improvement of social recognition memory in juvenile unfamiliar male C57Bl6 mouse assessed as reduction in exploration time by measuring discrimination index at 0.5 nmol/uL, ICV administered post acquisition phase and measured after 48 hrs at retention test phase; assay type: functional, organism-based
[3] = biological target: Carbonic anhydrase 2 (Homo sapiens) (UniProt P00918)
Description: Binding affinity to human carbonic anhydrase 2 assessed as activation constant by phenol red dye based stopped-flow method

[4] = biological target: Carbonic anhydrase 1 (Homo sapiens) (UniProt P00915)
Description: Binding affinity to human carbonic anhydrase 1 assessed as activation constant by phenol red dye based stopped-flow method

[5] = tested on: Mus musculus; experiment: Improvement of social recognition memory in juvenile unfamiliar male C57Bl6 mouse assessed as reduction in exploration time at 0.5 nmol/uL, ICV administered post acquisition phase and measured after 48 hrs at retention test phase; assay type: functional, organism-based
[6] = tested on: Mus musculus; experiment: Improvement of social recognition memory in juvenile familiar male C57Bl6 mouse assessed as reduction in exploration time at 0.5 nmol/uL, ICV administered post acquisition phase and measured after 48 hrs at retention test phase; assay type: functional, organism-based
[7] = tested on: Mus musculus; experiment: Improvement of social recognition memory in juvenile familiar male C57Bl6 mouse assessed as reduction in exploration time by measuring discrimination index at 0.5 nmol/uL, ICV administered post acquisition phase and measured after 48 hrs at retention test phase; assay type: functional, organism-based
[8] = biological target: Cholinesterase (Equus caballus, UniProt P81908)
Description: Inhibition of equine serum BuChE by microplate reader based analysis

[9] = biological target: Carbonic anhydrase 5B, mitochondrial (Homo sapiens) (UniProt Q9Y2D0)
Description: Binding affinity to human carbonic anhydrase 5B assessed as activation constant by phenol red dye based stopped-flow method

[10] = biological target: Carbonic anhydrase 4 (Homo sapiens) (UniProt P22748)
Description: Binding affinity to human carbonic anhydrase 4 assessed as activation constant by phenol red dye based stopped-flow method

[11] = biological target: Acetylcholinesterase (Electrophorus electricus, UniProt O42275)
Description: Inhibition of electric eel AChE by microplate reader based analysis

[12] = tested on: Mus musculus; experiment: Improvement of social recognition memory in juvenile familiar male C57Bl6 mouse assessed as reduction in exploration time by measuring discrimination index at 0.1 nmol/uL, ICV administered post acquisition phase and measured after 48 hrs at retention test phase; assay type: functional, organism-based
[13] = tested on: Mus musculus; experiment: Improvement of social recognition memory in juvenile unfamiliar male C57Bl6 mouse assessed as reduction in exploration time at 0.5 to 25 nmol/uL, ICV administered post acquisition phase and measured after 48 hrs at retention test phase; assay type: functional, organism-based; settings: dose 0.5-25 nmol/uL
[14] = tested on: Mus musculus; experiment: Improvement of social recognition memory in juvenile unfamiliar male C57Bl6 mouse assessed as reduction in exploration time by measuring discrimination index at 0.1 nmol/uL, ICV administered post acquisition phase and measured after 48 hrs at retention test phase; assay type: functional, organism-based
[15] = tested on: Mus musculus; experiment: Improvement of social recognition memory in juvenile familiar male C57Bl6 mouse assessed as reduction in exploration time at 0.1 nmol/uL, ICV administered post acquisition phase and measured after 48 hrs at retention test phase; assay type: functional, organism-based
[16] = tested on: Mus musculus; experiment: Improvement of social recognition memory in juvenile unfamiliar male C57Bl6 mouse assessed as reduction in exploration time at 0.1 nmol/uL, ICV administered post acquisition phase and measured after 48 hrs at retention test phase; assay type: functional, organism-based
[17] = tested on: Mus musculus; experiment: Improvement of social recognition memory in juvenile familiar male C57Bl6 mouse assessed as reduction in exploration time at 0.5 to 25 nmol/uL, ICV administered post acquisition phase and measured after 48 hrs at retention test phase; assay type: functional, organism-based; settings: dose 0.5-25 nmol/uL
[18] = tested on: Mus musculus; experiment: Improvement of social recognition memory in juvenile unfamiliar male C57Bl6 mouse assessed as reduction in exploration time at 25 nmol/uL, ICV administered post acquisition phase and measured after 48 hrs at retention test phase in presence of tacrine; assay type: functional, organism-based
[19] = tested on: Mus musculus; experiment: Improvement of social recognition memory in juvenile familiar male C57Bl6 mouse assessed as discrimination index at 25 nmol/uL, ICV administered post acquisition phase and measured after 48 hrs at retention test phase in presence of tacrine (reference value: -0.07+/-0.0124); assay type: functional
[20] = tested on: Mus musculus; experiment: Improvement of social recognition memory in juvenile familiar male C57Bl6 mouse assessed as reduction in exploration time at 25 nmol/uL, ICV administered post acquisition phase and measured after 48 hrs at retention test phase in presence of tacrine; assay type: functional, organism-based
[21] = tested on: Mus musculus; experiment: Improvement of social recognition memory in juvenile unfamiliar male C57Bl6 mouse assessed as reduction in exploration time at 5 nmol/uL, ICV administered post acquisition phase and measured after 48 hrs at retention test phase in presence of tacrine; assay type: functional, organism-based
[22] = tested on: Mus musculus; experiment: Improvement of social recognition memory in juvenile familiar male C57Bl6 mouse assessed as discrimination index at 50 nmol/uL, ICV administered post acquisition phase and measured after 48 hrs at retention test phase (reference value: -0.07+/-0.0124); assay type: functional
[23] = tested on: Mus musculus; experiment: Improvement of social recognition memory in juvenile familiar male C57Bl6 mouse assessed as reduction in exploration time at 5 nmol/uL, ICV administered post acquisition phase and measured after 48 hrs at retention test phase in presence of tacrine; assay type: functional, organism-based

Acetylcholinesterase, sequence (O42275 whole entry): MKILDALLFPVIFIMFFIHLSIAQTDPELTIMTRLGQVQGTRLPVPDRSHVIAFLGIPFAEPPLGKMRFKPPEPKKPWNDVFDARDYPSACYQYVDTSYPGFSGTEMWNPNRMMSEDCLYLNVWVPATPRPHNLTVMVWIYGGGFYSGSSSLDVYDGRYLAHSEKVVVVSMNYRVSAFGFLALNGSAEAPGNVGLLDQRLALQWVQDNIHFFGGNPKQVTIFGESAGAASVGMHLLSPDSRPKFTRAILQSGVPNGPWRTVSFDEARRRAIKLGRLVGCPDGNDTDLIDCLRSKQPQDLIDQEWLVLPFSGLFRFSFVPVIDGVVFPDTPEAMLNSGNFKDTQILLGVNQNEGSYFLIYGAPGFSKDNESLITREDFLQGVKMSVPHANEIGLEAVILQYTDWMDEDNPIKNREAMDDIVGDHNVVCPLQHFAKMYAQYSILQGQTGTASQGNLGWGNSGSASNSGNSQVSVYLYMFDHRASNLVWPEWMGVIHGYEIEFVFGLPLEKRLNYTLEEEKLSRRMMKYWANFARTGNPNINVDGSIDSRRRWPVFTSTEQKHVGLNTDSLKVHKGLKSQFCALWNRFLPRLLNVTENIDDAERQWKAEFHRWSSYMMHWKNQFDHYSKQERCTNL
Carbonic anhydrase 4 (Homo sapiens), sequence (P22748 whole entry): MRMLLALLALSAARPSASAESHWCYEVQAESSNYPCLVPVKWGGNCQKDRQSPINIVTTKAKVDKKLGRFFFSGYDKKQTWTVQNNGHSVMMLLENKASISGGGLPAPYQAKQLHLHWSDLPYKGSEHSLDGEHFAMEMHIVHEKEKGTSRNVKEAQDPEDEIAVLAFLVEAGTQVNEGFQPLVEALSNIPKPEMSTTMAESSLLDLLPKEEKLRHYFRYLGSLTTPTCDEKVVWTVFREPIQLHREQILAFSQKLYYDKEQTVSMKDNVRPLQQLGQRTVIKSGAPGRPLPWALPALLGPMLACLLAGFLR
Cholinesterase, sequence (P81908 whole entry): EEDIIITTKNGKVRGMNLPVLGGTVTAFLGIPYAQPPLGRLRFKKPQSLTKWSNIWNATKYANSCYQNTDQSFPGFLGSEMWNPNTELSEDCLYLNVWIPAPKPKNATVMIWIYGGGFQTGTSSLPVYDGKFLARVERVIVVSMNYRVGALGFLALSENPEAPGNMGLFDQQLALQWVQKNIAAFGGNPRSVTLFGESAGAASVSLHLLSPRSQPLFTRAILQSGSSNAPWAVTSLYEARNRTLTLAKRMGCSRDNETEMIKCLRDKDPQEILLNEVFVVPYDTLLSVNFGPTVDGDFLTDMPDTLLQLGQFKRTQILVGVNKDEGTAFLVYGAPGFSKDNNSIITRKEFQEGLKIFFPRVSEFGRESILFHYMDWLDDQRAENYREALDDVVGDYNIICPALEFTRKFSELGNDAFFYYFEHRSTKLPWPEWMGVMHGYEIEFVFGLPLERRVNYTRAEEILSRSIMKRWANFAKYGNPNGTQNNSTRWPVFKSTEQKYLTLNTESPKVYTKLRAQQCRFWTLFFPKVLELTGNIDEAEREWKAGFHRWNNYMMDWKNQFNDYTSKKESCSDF
Carbonic anhydrase 7 (Homo sapiens), sequence (P43166 whole entry): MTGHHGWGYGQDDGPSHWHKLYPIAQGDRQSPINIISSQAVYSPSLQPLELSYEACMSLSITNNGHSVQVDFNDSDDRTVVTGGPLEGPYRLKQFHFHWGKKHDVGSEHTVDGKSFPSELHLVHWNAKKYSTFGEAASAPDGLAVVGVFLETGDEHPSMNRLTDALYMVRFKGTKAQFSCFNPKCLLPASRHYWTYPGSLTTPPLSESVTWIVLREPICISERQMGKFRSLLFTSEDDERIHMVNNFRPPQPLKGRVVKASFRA
Carbonic anhydrase 5B, mitochondrial (Homo sapiens), sequence (Q9Y2D0 whole entry): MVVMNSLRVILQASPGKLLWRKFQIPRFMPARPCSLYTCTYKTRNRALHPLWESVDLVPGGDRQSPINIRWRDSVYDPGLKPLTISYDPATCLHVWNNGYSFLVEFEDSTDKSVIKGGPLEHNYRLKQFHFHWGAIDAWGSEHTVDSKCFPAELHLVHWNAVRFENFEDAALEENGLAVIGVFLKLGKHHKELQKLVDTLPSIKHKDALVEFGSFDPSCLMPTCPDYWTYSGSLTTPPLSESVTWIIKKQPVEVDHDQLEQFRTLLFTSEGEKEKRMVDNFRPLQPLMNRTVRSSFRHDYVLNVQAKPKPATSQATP
Carbonic anhydrase 1 (Homo sapiens), sequence (P00915 2-261 limits assumed): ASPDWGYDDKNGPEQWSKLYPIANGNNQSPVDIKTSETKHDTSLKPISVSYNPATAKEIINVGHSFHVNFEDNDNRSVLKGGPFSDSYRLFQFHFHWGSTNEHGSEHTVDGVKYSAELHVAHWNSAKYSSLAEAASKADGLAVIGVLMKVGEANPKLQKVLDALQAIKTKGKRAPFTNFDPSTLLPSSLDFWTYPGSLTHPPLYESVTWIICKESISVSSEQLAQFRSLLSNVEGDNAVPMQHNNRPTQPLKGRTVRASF

Row | Structure (SMILES) | KA ([1]; filed as activator) | KA ([3]; filed as activator) | KA ([4]; filed as activator) | IC50 [8] | KA ([9]; filed as activator) | KA ([10]; filed as activator) | IC50 [11] | further results
1 | N[C@@H](CCCCNC(=O)OCc1ccccc1)C(=O)NCCCNc1c2c(nc3ccccc13)CCCC2 | 3080 nM | 1200 nM | 2080 nM | 0.3 nM | 4.95 µM | 8.52 µM | 110 nM | Activity [2]: inactive; Activity [5]: inactive; Activity [6]: inactive; Activity [7]: inactive
2 | N[C@@H](Cc1ccccc1)C(=O)NCCCCCNc1c2c(nc3ccccc13)CCCC2 | 192 nM | 93.4 nM | 782 nM | 1.9 nM | 1.32 µM | 2.61 µM | 7.4 nM | Activity [12]: inactive; Activity [13]: Active; Activity [14]: inactive; Activity [15]: inactive; Activity [16]: inactive; Activity [17]: Active
3 | N[C@@H](Cc1c[nH]cn1)C(=O)NCCCCCNc1c2c(nc3ccccc13)CCCC2 | 96.4 nM | 65.1 nM | 565 nM | 6.8 nM | 1.01 µM | 0.757 µM | 29.8 nM | Activity [12]: inactive; Activity [13]: Active; Activity [14]: inactive; Activity [15]: inactive; Activity [16]: inactive; Activity [17]: Active
4 | COC(=O)[C@H](Cc1c[nH]cn1)NCCCCCCNc1c2c(nc3ccccc13)CCCC2 | 98 nM | 76.9 nM | 266 nM | 4.2 nM | 0.893 µM | 0.918 µM | 72.1 nM | Activity [12]: inactive; Activity [13]: Active; Activity [14]: inactive; Activity [15]: inactive; Activity [16]: inactive; Activity [17]: Active
5 | N[C@@H](CCCCNC(=O)OCc1ccccc1)C(=O)NCCCCCNc1c2c(nc3ccccc13)CCCC2 | 2730 nM | 981 nM | 3530 nM | 0.33 nM | 4.97 µM | 3.61 µM | 238 nM | 
6 | N[C@H](Cc1ccccc1)C(=O)O [D-PHENYLALANINE] |  |  |  |  |  |  |  | Activity [18]: Active; Activity_index [19]: 0.205; Activity [20]: Active; Activity [21]: inactive; Activity_index [22]: 0.373; Activity [23]: inactive
7 | CC(C)(C)OC(=O)N[C@@H](Cc1c[nH]c2ccccc12)C(=O)NCCCCNc1c2c(nc3ccccc13)CCCC2 | 2630 nM | 7650 nM | 2620 nM | 0.21 nM | 8.64 µM | 8.58 µM | 82.3 nM | 
8 | N[C@@H](CCCCNC(=O)OCc1ccccc1)C(=O)NCCCCNc1c2c(nc3ccccc13)CCCC2 | 975 nM | 1900 nM | 3270 nM | 2.5 nM | 1.4 µM | 9.73 µM | 250 nM | 
9 | CC(C)(C)OC(=O)N[C@@H](CCCCNC(=O)OCc1ccccc1)C(=O)NCCCNc1c2c(nc3ccccc13)CCCC2 |  |  |  | 0.25 nM |  |  | 419 nM | KA [1]: > 50000 nM; KA [3]: > 50000 nM; KA [4]: > 50000 nM; KA [9]: > 50 µM; KA [10]: > 50 µM
10 | CC(C)(C)OC(=O)N[C@@H](Cc1cn(C(=O)OC(C)(C)C)cn1)C(=O)NCCCCCNc1c2c(nc3ccccc13)CCCC2 |  | 11100 nM |  | 0.57 nM | 9.05 µM |  | 141 nM | KA [1]: > 50000 nM; KA [4]: > 50000 nM; KA [10]: > 50 µM
11 | CC(C)(C)OC(=O)N[C@@H](Cc1cn(C(=O)OC(C)(C)C)cn1)C(=O)NCCCNc1c2c(nc3ccccc13)CCCC2 |  | 15900 nM |  | 3.6 nM |  |  | 157 nM | KA [1]: > 50000 nM; KA [4]: > 50000 nM; KA [9]: > 50 µM; KA [10]: > 50 µM
12 | CC(C)(C)OC(=O)N[C@@H](Cc1cn(C(=O)OC(C)(C)C)cn1)C(=O)NCCCCCCNc1c2c(nc3ccccc13)CCCC2 |  | 10000 nM |  | 0.44 nM |  |  | 14.5 nM | KA [1]: > 50000 nM; KA [4]: > 50000 nM; KA [9]: > 50 µM; KA [10]: > 50 µM
13 | COC(=O)[C@H](Cc1c[nH]c2ccccc12)NCCCCCNc1c2c(nc3ccccc13)CCCC2 | 482 nM | 840 nM | 606 nM | 4 nM | 0.471 µM | 2.93 µM | 37.6 nM | 
14 | CC(C)(C)OC(=O)N[C@@H](Cc1c[nH]c2ccccc12)C(=O)NCCCNc1c2c(nc3ccccc13)CCCC2 | 1920 nM | 5180 nM | 1920 nM | 0.5 nM |  | 21.7 µM | 426 nM | KA [9]: > 50 µM
15 | COC(=O)[C@@H](N)Cc1ccc(OCCCCCCNc2c3c(nc4ccccc24)CCCC3)cc1 | 185 nM | 295 nM | 702 nM | 2.7 nM | 6.16 µM | 8.25 µM | 26.4 nM | 
16 | CC(C)(C)OC(=O)N[C@@H](Cc1cn(C(=O)OC(C)(C)C)cn1)C(=O)NCCCCNc1c2c(nc3ccccc13)CCCC2 |  | 12400 nM |  | 0.064 nM |  |  | 122 nM | KA [1]: > 50000 nM; KA [4]: > 50000 nM; KA [9]: > 50 µM; KA [10]: > 50 µM
17 | COC(=O)[C@H](Cc1ccccc1)NCCCCCNc1c2c(nc3ccccc13)CCCC2 | 535 nM | 247 nM | 731 nM | 3.8 nM | 5.32 µM | 3.45 µM | 110 nM | 
